# Reference: patent US20260263651A1, “WOUND DRESSING” (UNIVERSITY OF SUNDERLAND, priority 2023, published 2026)
# Entries after “also recorded” stand apart in the source; their conditions may differ.
# Experiments:
# Assay type in all cases: cell-based
# Pseudomonas aeruginosa [1] = experiment: Microbiological evaluation of standardised bacterial suspensions, modified wound dressing with absorbed substrate on agar; parameters: key to Observable colour change: − indicates no colour change; +− indicates relatively discernible blue colour change; + indicates a moderately strong blue colour change; ++ indicates a strong blue colour change
# Procedure: (§1) ACTIVHEAL® simply A (10×20 cm) non-adhesive foam samples were provided by Advanced Medical Solutions Ltd. The wound dressings were cut into ~5-10×5-10 mm squares, using an ethanol washed pair of scissors. A maximum of 0.20 g of the material was added into 10 mL DI water, and the pH was adjusted to ~3 by the addition of 0.1 M aq. HCl solution. The solution was stirred for 10 mins at room temperature, followed by the addition of 0.33 g EDC •HCl (1.7 mmol) and the pH was maintained at ~3 by the addition of 0.1 M aq. HCl solution. The solution was stirred at room temperature for 10 mins followed by the addition of 0.88 g compound 8 which was dissolved in DMSO or DMF. The mixture was stirred at room temperature for 48 h. The wound dressings were filtered and were washed with ethanol. To ensure the full removal of any non-coupled amide (8), the foam samples were resuspended in ethanol, stirred for 10 mins and filtered, and this process was repeated until the amide (8) was not detectable from the filtrate (this could be maintained by TLC or HPLC evaluation). The samples were dried in a vacuum oven for 3-4 h.
# (§2) The aqueous solution of 3a or 3b was prepared by the following: the desired amount of the enzymatic substrate (3.0 mg for 300 mg/L, 6.0 mg for 600 mg/L, 9.0 mg for 900 mg/L, 15.0 mg for 1500 mg/L, and 30.0 mg for 3000 mg/L) was weighed out on a 4 decimal place balance within ±0.3 mg error limit into a 10 mL volumetric flask and was adjusted to 10.0 mL with DI water. The solutions were absorbed into the foam samples and dried in a vacuum oven at 40° C. overnight.
# Bacterial strains were routinely cultured from working stocks in Tryptic Soy Broth (TSB) and incubated at 37° C. overnight with shaking at 150 RPM. Overnight cultures were centrifuged at 3000×g for 5 minutes, the supernatant discarded, and the pellet resuspended in 10 mL phosphate buffered saline (PBS). Bacterial inoculums were standardised by optical density at 600 nm on an Amersham Biosciences Ultrospec 10 spectrophotometer (Amersham Biosciences, Amersham, UK) to contain between 1 and 3×10^8 CFU/mL.
# However, rapid evaluation of lower bacteria concentrations is essential for the desired clinical application. […] The solutions were absorbed into the wound dressing samples, which were dried overnight under vacuum at 40° C.
# Two Gram negative strains (Escherichia coli—EC and Pseudomonas aeruginosa—PSA) and a Gram-positive bacterium (Staphylococcus aureus—SA) were evaluated. The bacteria were incubated overnight, centrifuged at 3000×g for 5 mins, the supernatant was discarded, and the residue pellets were resuspended in 10 mL PBS. The inoculums were standardised by measuring the optical density at 600 nm to assure a 1-3×10^8 CFU/mL. The standardised solutions were further diluted to prepare 1-3×10^6 and 1-3×10^4 CFU/mL suspension. 1×10^6 CFU would be an ideal breakpoint for a positive result, as this concentration coincides well with a level of colonisation that would likely go on to produce an infection.
# 100 μL bacterial suspensions were smeared over agar plates. Wound dressing samples were added to the top of the agar and were rolled over a few times (to ensure a full coverage and to ease the visibility of the colour change). The plates were incubated at 37° C., and the results were recorded after 24 h, after 48 h, after 72 h. The results are shown in Table 3-5; − indicates no colour change, +− indicates relatively discernible blue colour change, + indicates a moderately strong blue colour change and ++ indicates a strong blue colour change.
# Escherichia coli = experiment: Microbiological evaluation of overnight bacteria suspensions, modified alginate wound dressing with absorbed substrate on agar; details: for Observable colour change: EC overnight culture, 24 h incubation at 37° C.
# Procedure: as §1, §2
# (§3) To model fluid exudate from a chronic wound, the wound dressing made according to ‘Modification of ActivHeal® Alginate’, above, was placed into an agar plate and the test pathogen was smeared over the surface of the agar.
# (§4) The enzymatic substrates were tested in 4 different concentrations (300, 600, 900 and 3000 mg/L) using DI water as a solvent, and the solutions were absorbed into the wound dressing samples, which were dried overnight under vacuum at 40° C.
# (§5) Two Gram negative strains (Escherichia coli—EC and Pseudomonas aeruginosa—PSA) and a Gram positive bacteria (Staphylococcus aureus—SA) were evaluated against the dimethyl (3a) and the diethyl (3b) substituted substrate. The overnight cultures were directly smeared from LB broth onto Columbia blood agar without measuring the OD. The wound dressings with the enzymatic substrate absorbed were placed onto the agar and were incubated overnight (see FIGS. 2-7).
# Staphylococcus aureus = experiment: as above; details: SA overnight culture, 24 h incubation at 37° C.
# Procedure: as §1, §2, §3, §4, §5
# Pseudomonas aeruginosa [2] = experiment: as above; details: PSA overnight culture, 24 h incubation at 37° C.
# Procedure: as §1, §2, §3, §4, §5
# [3] = substrate 300 mg/L, hydrochloride
smiles,measurement,setting,value
"CCN(CC)c1ccc(NC(=O)[C@@H](N)CC(C)C)cc1.Cl [3b, (2S)-2-amino-N-[4-(diethylamino)phenyl]-4-methyl-pentanamide hydrochloride]",Observable colour change,"Pseudomonas aeruginosa [1]; PSA 10^4, substrate 300 mg/L, 24 h at 37° C.",−
same,Observable colour change,"Pseudomonas aeruginosa [1]; PSA 10^4, substrate 300 mg/L, 48 h at 37° C.",−
same,Observable colour change,"Pseudomonas aeruginosa [1]; PSA 10^4, substrate 300 mg/L, 72 h at 37° C.",+
same,Observable colour change,"Pseudomonas aeruginosa [1]; PSA 10^4, substrate 900 mg/L, 24 h at 37° C.",−
same,Observable colour change,"Pseudomonas aeruginosa [1]; PSA 10^4, substrate 900 mg/L, 48 h at 37° C.",−
same,Observable colour change,"Pseudomonas aeruginosa [1]; PSA 10^4, substrate 900 mg/L, 72 h at 37° C.",++
same,Observable colour change,"Pseudomonas aeruginosa [1]; PSA 10^4, substrate 1500 mg/L, 24 h at 37° C.",−
same,Observable colour change,"Pseudomonas aeruginosa [1]; PSA 10^4, substrate 1500 mg/L, 48 h at 37° C.",−
same,Observable colour change,"Pseudomonas aeruginosa [1]; PSA 10^4, substrate 1500 mg/L, 72 h at 37° C.",++
same,Observable colour change,"Pseudomonas aeruginosa [1]; PSA 10^6, substrate 300 mg/L, 24 h at 37° C.",−
same,Observable colour change,"Pseudomonas aeruginosa [1]; PSA 10^6, substrate 300 mg/L, 48 h at 37° C.",−
same,Observable colour change,"Pseudomonas aeruginosa [1]; PSA 10^6, substrate 300 mg/L, 72 h at 37° C.",+
same,Observable colour change,"Pseudomonas aeruginosa [1]; PSA 10^6, substrate 900 mg/L, 24 h at 37° C.",−
same,Observable colour change,"Pseudomonas aeruginosa [1]; PSA 10^6, substrate 900 mg/L, 48 h at 37° C.",+−
same,Observable colour change,"Pseudomonas aeruginosa [1]; PSA 10^6, substrate 900 mg/L, 72 h at 37° C.",++
same,Observable colour change,"Pseudomonas aeruginosa [1]; PSA 10^6, substrate 1500 mg/L, 24 h at 37° C.",−
same,Observable colour change,"Pseudomonas aeruginosa [1]; PSA 10^6, substrate 1500 mg/L, 48 h at 37° C.",−
same,Observable colour change,"Pseudomonas aeruginosa [1]; PSA 10^6, substrate 1500 mg/L, 72 h at 37° C.",+
same,colour change,"Pseudomonas aeruginosa [1]; PSA 10^8, 10^6 or 10^4 CFU, after 72 h, every tested substrate concentration",moderate or strong blue colour changes
same,Observable colour change,"Pseudomonas aeruginosa [1]; PSA 10^8, substrate 300 mg/L, 24 h at 37° C.",−
same,Observable colour change,"Pseudomonas aeruginosa [1]; PSA 10^8, substrate 300 mg/L, 48 h at 37° C.",+
same,Observable colour change,"Pseudomonas aeruginosa [1]; PSA 10^8, substrate 300 mg/L, 72 h at 37° C.",+
same,Observable colour change,"Pseudomonas aeruginosa [1]; PSA 10^8, substrate 900 mg/L, 24 h at 37° C.",−
same,Observable colour change,"Pseudomonas aeruginosa [1]; PSA 10^8, substrate 900 mg/L, 48 h at 37° C.",++
same,Observable colour change,"Pseudomonas aeruginosa [1]; PSA 10^8, substrate 900 mg/L, 72 h at 37° C.",++
same,Observable colour change,"Pseudomonas aeruginosa [1]; PSA 10^8, substrate 1500 mg/L, 24 h at 37° C.",−
same,Observable colour change,"Pseudomonas aeruginosa [1]; PSA 10^8, substrate 1500 mg/L, 48 h at 37° C.",++
same,Observable colour change,"Pseudomonas aeruginosa [1]; PSA 10^8, substrate 1500 mg/L, 72 h at 37° C.",++
same,colour change,"Pseudomonas aeruginosa [1]; PSA 10^8 CFU, 10^6 CFU, and 104 CFU, substrate 900 mg/L, printed in the 48 h paragraph",strong blue colour changes
same,colour change,"Pseudomonas aeruginosa [1]; PSA 10^8 CFU, after 48 h incubation, substrate 900 or 1500 mg/L",strong blue colour changes
same,Observable colour change,Escherichia coli; [3],blue colour changes; also recorded: Light blue
same,Observable colour change,Escherichia coli; substrate 600 mg/L,Light blue
same,Observable colour change,Escherichia coli; substrate 900 mg/L,Dark blue
same,Observable colour change,Escherichia coli; substrate 3000 mg/L,Dark blue
same,colour change strength compared with the dimethyl analogue,"Escherichia coli; overnight cultures (EC, PSA, SA), overall comparison of Table 2",stronger colour changes than the dimethyl analogue (3a)
same,Observable colour change,Staphylococcus aureus; substrate 300 mg/L,None
same,Observable colour change,Staphylococcus aureus; substrate 600 mg/L,None
same,Observable colour change,Staphylococcus aureus; substrate 900 mg/L,None
same,Observable colour change,"Staphylococcus aureus; substrate 3000 mg/L, hydrochloride",produced the colour change and Blue
same,Observable colour change,Pseudomonas aeruginosa [2]; [3],blue colour changes; also recorded: Light blue
same,Observable colour change,Pseudomonas aeruginosa [2]; substrate 600 mg/L,Light blue
same,Observable colour change,Pseudomonas aeruginosa [2]; substrate 900 mg/L,Blue
same,Observable colour change,Pseudomonas aeruginosa [2]; substrate 3000 mg/L,Dark blue
